Read-outs that look alike come from different tables or passages of the source.
Assays:
AOL = target: T1, AOL (Aspergillus oryzae, UniProt Q2UNX8); assay: hemagglutination inhibition, microscope detection; assay type: biochemical; details: PBS, room temperature, lectin 0.05 mg/mL
T1 construct: gene fleA; purchased freeze-dried (TCI); dimer
T1 sequence (Q2UNX8 1-311): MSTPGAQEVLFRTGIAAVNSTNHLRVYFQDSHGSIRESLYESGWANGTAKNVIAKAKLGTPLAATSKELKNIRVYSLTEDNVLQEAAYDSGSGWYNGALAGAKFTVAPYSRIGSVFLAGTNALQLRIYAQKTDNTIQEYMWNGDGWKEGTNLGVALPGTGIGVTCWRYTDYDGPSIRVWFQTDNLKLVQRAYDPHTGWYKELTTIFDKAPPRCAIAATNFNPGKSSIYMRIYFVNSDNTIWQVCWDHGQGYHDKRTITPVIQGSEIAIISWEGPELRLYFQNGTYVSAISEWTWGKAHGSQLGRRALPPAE
Source text: hemagglutination inhibition, microscope detection on AOL

AAL = target: T2, AAL (Aleuria aurantia, UniProt P18891); assay: hemagglutination inhibition, microscope detection; assay type: biochemical; details: PBS, room temperature, lectin 0.05 mg/mL
T2 construct: purchased freeze-dried (Vector Laboratories); dimer
T2 sequence (P18891 2-313): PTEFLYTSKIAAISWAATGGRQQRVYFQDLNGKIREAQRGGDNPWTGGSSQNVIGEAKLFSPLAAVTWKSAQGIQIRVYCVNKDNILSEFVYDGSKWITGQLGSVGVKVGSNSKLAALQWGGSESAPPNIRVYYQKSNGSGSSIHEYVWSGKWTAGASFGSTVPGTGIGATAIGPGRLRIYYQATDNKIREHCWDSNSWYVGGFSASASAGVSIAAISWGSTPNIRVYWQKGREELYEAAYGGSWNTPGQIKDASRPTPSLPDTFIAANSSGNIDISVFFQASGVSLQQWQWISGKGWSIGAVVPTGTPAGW
Source text: hemagglutination inhibition, microscope detection on AAL

BC2L-C = target: T3, BC2L-C (Burkholderia cenocepacia, UniProt B4EH86); assay: hemagglutination inhibition, microscope detection; assay type: biochemical; details: human 0+ papain-treated red blood cells, 20 mM Tris/HCl, 150 mM NaCl, 5 mM CaCl2, pH 7.5, room temperature, lectin 0.1 mg/mL, semi-quantitative
T3 construct: gene BCAM0185; recombinant in E. coli; D-mannose-agarose purified; N-terminal domain (fucose site) is a trimer
Source text: hemagglutination inhibition, microscope detection on BC2L-C

PA-IIL (LecB) = target: T4, PA-IIL (LecB) (Pseudomonas aeruginosa, UniProt Q9HYN5); assay: hemagglutination inhibition, microscope detection; assay type: biochemical; details: 20 mM Tris/HCl, 150 mM NaCl, 5 mM CaCl2, pH 7.5, room temperature, lectin 1.25 mg/mL
T4 construct: recombinant in E. coli, D-mannose-agarose purified; homotetramer, two calcium ions per site
Source text: hemagglutination inhibition, microscope detection on PA-IIL (LecB)

RSL = RSL (Ralstonia pseudosolanacearum, UniProt Q8XXK6); details: PBS, room temperature, lectin 0.05 mg/mL
AFL = target: T5, AFL (Aspergillus fumigatus, UniProt Q4WW81); assay: hemagglutination inhibition, microscope detection; assay type: biochemical; details: PBS; room temperature; lectin 0.05 mg/mL; valency 1
T5 construct: gene fleA; dimer of six-bladed beta-propellers
Source text: hemagglutination inhibition, microscope detection on AFL

T4 sequence (Q9HYN5 entry or part of it): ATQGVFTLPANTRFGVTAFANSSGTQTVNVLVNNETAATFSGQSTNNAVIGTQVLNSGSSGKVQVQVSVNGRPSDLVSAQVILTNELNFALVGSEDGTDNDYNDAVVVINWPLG
T3 sequence (B4EH86 entry or part of it): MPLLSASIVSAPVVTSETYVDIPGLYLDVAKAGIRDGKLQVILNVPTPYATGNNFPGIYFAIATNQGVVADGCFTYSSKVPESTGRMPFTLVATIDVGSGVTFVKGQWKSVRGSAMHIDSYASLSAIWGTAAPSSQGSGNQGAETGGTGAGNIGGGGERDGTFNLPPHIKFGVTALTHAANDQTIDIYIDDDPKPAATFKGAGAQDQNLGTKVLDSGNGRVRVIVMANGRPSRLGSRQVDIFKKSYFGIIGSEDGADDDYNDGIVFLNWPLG
T5 sequence (Q4WW81 whole entry): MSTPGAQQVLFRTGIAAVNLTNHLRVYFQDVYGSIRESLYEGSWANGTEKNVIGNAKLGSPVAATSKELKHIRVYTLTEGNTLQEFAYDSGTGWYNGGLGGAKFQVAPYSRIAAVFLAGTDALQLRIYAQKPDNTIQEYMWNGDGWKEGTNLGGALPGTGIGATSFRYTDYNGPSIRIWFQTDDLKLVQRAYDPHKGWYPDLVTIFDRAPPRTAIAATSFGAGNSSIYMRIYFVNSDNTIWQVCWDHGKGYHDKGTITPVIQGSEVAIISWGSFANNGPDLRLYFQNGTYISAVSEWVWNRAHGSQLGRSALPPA

**Q.** For C[C@@H]1O[C@@H](OCc2cn(CCOCCOCCOCCn3cc(COCC(COCc4cn(CCOCCOCCOCCn5cc(CO[C@@H]6O[C@@H](C)[C@@H](O)[C@@H](O)[C@@H]6O)nn5)nn4)(COCc4cn(CCOCCOCCOCCn5cc(CO[C@@H]6O[C@@H](C)[C@@H](O)[C@@H](O)[C@@H]6O)nn5)nn4)COCc4cn(CCOCCOCCOCCn5cc(CO[C@@H]6O[C@@H](C)[C@@H](O)[C@@H](O)[C@@H]6O)nn5)nn4)nn3)nn2)[C@@H](O)[C@H](O)[C@@H]1O [compound 2, Compound 2], which “RSL / β^#” value (AOL; 0+ papain-treated red blood cells, semi-quantitative, valency 4) is on record?
**A.** 256 fold vs L-fucose

**Q.** What about the “AFL / Potency” value (AAL; valency 4) of the same compound?
**A.** 128 fold vs L-fucose

**Q.** And the “BC2L-C / Potency” value (BC2L-C; valency 4)?
**A.** 16 fold vs L-fucose

**Q.** And the “AFL / β^#” value (PA-IIL (LecB); valency 4)?
**A.** 32 fold vs L-fucose

**Q.** And the “RSL / Potency” value (RSL; valency 4)?
**A.** 1024 fold vs L-fucose

**Q.** Which results are given for C#CCO[C@@H]1O[C@@H](C)[C@@H](O)[C@@H](O)[C@@H]1O [compound 11, Compound 11]?
**A.** AFL / Potency (AOL; valency 1): 4 fold vs L-fucose; AFL / Potency (AFL): 4 fold vs L-fucose; AFL / Potency (AAL; valency 1): 4 fold vs L-fucose; AFL / Potency (PA-IIL (LecB); valency 1): 4 fold vs L-fucose; RSL / Potency (RSL; valency 1): 8 fold vs L-fucose

**Q.** How did the “RSL / Potency” value (RSL; valency 1) turn out when C[C@@H]1O[C@@H](OCc2cn(CCN=[N+]=[N-])nn2)[C@@H](O)[C@H](O)[C@@H]1O [compound 12, Compound 12] was run?
**A.** 32 fold vs L-fucose

**Q.** With C[C@@H]1O[C@@H](OCc2cn(CCOCCOCCOCCn3cc(CO[C@@H]4O[C@@H](C)[C@@H](O)[C@@H](O)[C@@H]4O)nn3)nn2)[C@@H](O)[C@H](O)[C@@H]1O [compound 14, Compound 14] as the compound, how does the “RSL / Potency” value (RSL; valency 2) read?
**A.** 128 fold vs L-fucose

**Q.** What does the source list for C[C@@H]1O[C@@H](SCCO)[C@@H](O)[C@H](O)[C@@H]1O [compound 21, Compound 21]?
**A.** RSL / Potency (AOL; valency 1): 4 fold vs L-fucose; AFL / Potency (AFL): 2 fold vs L-fucose; AFL / Potency (AAL; valency 1): 2 fold vs L-fucose; RSL / Potency (BC2L-C; valency 4 buffer and lectin concentration, valency 1): 4 fold vs L-fucose; RSL / Potency (PA-IIL (LecB); valency 1): 4 fold vs L-fucose; RSL / Potency (RSL; valency 1): 4 fold vs L-fucose

**Q.** How did the “RSL / Potency” value (BC2L-C; valency 4) turn out when C[C@@H]1O[C@@H](SCCS(=O)(=O)O)[C@@H](O)[C@H](O)[C@@H]1O [compound 22, Compound 22] was run?
**A.** 4 fold vs L-fucose

From PMC6631993, “Investigation of the Binding Affinity of a Broad Array of L-Fucosides with Six Fucose-Specific Lectins of Bacterial and Fungal Origin” (Molecules, 2019)
